This passage reports remaining binding results from patent US12275731B2, “Azaindole inhibitors of wild-type and mutant forms of LRRK2” (DANA-FARBER CANCER INSTITUTE, INC., priority 2018, dated 2025).

Experiment in all cases: KinomeScan profiling
Type in all cases: binding

For one test, the target named is CAMK1D (Homo sapiens, UniProt Q8IU85). As to conditions: read-out: % control. The method in brief:
(§1)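 1 μM cpd in DMSO; 468-kinase panel; readout RLU. % ctrl = (cpd − pos ctrl)/(neg ctrl − pos ctrl) ×100. Pos ctrl = 0%, DMSO = 100%. Hit cut-off <35%.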

In the next test the target is CSF1R (Homo sapiens, UniProt P07333). The settings on record: read-out: % control. In short, it runs like this: as §1
Chain of CSF1R (P07333 20-972): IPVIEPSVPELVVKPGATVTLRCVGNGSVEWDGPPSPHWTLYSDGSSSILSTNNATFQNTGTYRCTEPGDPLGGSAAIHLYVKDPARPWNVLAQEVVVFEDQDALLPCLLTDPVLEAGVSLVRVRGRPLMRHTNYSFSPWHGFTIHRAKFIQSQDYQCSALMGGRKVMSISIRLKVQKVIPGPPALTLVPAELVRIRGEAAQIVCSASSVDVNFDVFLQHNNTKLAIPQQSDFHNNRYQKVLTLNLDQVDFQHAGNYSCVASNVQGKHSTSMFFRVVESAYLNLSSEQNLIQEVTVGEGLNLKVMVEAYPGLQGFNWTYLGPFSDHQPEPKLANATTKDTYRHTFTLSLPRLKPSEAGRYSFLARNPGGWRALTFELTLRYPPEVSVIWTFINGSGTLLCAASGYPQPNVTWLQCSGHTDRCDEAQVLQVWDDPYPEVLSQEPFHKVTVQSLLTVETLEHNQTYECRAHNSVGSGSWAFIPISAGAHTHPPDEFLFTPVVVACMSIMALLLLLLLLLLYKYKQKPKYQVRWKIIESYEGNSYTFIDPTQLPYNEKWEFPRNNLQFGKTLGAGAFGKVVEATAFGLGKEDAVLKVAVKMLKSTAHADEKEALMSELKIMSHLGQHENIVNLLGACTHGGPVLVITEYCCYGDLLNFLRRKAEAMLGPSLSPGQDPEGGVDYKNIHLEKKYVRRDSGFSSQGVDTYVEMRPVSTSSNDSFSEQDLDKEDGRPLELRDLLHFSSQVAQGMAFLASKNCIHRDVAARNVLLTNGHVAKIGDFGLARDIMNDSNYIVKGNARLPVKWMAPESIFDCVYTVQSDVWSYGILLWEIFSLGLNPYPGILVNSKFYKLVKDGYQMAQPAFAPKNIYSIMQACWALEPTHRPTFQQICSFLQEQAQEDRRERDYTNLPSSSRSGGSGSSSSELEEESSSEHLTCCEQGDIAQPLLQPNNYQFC
For the next test, the target named is DAPK2 (Homo sapiens, UniProt Q9UIK4). The settings on record: DAPK2, 1 μM; read-out: % control. The method in brief: as §1
Chain of DAPK2 (Q9UIK4 whole entry): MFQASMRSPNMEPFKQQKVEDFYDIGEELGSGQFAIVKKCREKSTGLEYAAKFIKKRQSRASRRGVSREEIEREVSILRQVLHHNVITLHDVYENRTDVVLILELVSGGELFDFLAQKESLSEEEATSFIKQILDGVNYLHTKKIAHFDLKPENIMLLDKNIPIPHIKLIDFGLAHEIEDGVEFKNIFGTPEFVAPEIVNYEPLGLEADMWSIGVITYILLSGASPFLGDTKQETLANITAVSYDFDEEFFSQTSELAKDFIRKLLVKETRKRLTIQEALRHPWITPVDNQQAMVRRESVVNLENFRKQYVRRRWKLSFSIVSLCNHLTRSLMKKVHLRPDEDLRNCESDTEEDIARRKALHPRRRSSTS
Test [1] addresses EGFR(L747-S752del, P753S) (Homo sapiens, UniProt P00533, DEL747-752/P753S). As to conditions: read-out: % control. The method in brief: as §1
The target of the next test is FGR (Homo sapiens, UniProt P09769). As to conditions: read-out: % control. The method in brief: as §1
Chain of FGR (P09769 whole entry): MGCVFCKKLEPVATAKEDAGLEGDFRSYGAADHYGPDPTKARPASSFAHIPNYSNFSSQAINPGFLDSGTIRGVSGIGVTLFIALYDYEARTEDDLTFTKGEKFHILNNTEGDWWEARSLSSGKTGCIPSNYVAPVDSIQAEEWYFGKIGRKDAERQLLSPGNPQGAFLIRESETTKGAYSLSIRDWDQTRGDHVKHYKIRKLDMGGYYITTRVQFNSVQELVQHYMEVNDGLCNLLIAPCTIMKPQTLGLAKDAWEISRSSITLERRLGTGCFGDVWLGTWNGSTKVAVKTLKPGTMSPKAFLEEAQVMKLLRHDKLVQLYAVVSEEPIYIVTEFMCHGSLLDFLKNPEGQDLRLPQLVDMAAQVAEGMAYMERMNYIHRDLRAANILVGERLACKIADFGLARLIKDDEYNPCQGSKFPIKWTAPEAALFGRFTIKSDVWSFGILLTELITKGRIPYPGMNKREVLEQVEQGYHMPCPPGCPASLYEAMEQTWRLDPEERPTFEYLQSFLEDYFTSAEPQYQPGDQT
The next test addresses GSK3A (Homo sapiens, UniProt P49840). As to conditions: read-out: % control. In short, it runs like this:
as §1

The next test addresses MEK2 (Homo sapiens, UniProt P36507). As to conditions: MEK2, 1 μM; read-out: % control. The method in brief: as §1
The target in the next test is MET (Homo sapiens, UniProt P08581). As to conditions: read-out: % control. In short, it runs like this:
as §1

A further test addresses T1, MYLK4 (Homo sapiens, UniProt Q86YV6).
T1 sequence (Q86YV6 1-388): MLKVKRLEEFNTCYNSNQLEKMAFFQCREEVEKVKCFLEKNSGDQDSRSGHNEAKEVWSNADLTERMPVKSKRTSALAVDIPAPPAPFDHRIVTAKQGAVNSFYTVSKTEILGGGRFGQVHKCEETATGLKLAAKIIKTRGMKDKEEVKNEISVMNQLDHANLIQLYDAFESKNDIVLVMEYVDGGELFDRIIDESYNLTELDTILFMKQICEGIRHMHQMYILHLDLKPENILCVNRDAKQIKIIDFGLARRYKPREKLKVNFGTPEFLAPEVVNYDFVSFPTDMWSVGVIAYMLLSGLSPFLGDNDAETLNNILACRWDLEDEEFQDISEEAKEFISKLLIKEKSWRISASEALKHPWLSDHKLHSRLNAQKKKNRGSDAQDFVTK
As to conditions: MYLK4, 1 μM; read-out: % control. The method in brief: as §1

Another test addresses NIK (Homo sapiens, UniProt Q99558). As to conditions: read-out: % control. In short, it runs like this:
as §1

In the next test the target is PIK3C2B (Homo sapiens, UniProt O00750). The settings on record: read-out: % control. In short, it runs like this: as §1
The target of a further test is T2, PIK3CA (Homo sapiens, UniProt P42336).
T2 construct: purchased KinomeScan® (panel service)
The settings on record: read-out: % control. The method in brief: as §1

The target in another test is T3, RIPK5 (Homo sapiens, UniProt Q6XUX3).
T3 sequence (Q6XUX3 1-929): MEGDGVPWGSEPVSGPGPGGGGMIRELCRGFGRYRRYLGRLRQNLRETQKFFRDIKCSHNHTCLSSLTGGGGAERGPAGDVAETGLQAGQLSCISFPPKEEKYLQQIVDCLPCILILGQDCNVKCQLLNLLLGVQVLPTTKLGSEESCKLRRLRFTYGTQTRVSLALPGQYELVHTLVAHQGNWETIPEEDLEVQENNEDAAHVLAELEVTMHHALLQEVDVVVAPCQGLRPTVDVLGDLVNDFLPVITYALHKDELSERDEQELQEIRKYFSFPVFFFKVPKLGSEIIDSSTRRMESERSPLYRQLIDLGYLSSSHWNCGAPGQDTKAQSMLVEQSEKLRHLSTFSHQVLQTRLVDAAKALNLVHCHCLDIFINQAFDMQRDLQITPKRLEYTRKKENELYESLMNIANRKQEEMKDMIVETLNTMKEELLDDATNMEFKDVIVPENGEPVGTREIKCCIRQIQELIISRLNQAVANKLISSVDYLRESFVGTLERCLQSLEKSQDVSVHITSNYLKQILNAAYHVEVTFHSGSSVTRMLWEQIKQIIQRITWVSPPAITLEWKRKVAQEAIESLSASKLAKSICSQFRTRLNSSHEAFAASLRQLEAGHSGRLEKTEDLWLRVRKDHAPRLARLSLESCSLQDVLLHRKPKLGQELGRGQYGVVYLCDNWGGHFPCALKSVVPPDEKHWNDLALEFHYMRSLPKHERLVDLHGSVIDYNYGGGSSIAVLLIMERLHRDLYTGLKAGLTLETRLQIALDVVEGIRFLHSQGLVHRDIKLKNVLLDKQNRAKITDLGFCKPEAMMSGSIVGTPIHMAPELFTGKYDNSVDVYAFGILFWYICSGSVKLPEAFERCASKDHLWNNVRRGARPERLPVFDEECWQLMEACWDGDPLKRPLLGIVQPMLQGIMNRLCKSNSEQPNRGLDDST
The settings on record: RIPK5, 1 μM; read-out: % control. In short, it runs like this: as §1

Another test concerns the target T4, STK16 (Homo sapiens, UniProt O75716).
T4 construct: purchased KinomeScan® (panel service)
The settings on record: STK16, 1 μM; read-out: % control. The method in brief:
as §1

SMILES strings stand for the structures.

Chain of GSK3A (P49840 whole entry): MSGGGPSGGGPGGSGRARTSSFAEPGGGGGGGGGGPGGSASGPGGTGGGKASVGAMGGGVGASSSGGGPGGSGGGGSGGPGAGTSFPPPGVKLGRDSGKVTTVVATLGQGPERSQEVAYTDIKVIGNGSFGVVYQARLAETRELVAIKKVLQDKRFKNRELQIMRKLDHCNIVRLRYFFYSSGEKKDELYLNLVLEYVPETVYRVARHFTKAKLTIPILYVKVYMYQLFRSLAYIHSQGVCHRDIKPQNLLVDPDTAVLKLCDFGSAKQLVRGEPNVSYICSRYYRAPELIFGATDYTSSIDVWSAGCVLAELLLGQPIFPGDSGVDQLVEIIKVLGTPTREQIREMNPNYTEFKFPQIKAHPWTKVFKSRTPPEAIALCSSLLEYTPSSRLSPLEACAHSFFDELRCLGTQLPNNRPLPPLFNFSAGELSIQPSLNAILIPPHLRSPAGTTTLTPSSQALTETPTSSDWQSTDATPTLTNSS
Chain of EGFR(L747-S752del, P753S) (P00533 with tags, fused parts or gaps DEL747-752/P753S): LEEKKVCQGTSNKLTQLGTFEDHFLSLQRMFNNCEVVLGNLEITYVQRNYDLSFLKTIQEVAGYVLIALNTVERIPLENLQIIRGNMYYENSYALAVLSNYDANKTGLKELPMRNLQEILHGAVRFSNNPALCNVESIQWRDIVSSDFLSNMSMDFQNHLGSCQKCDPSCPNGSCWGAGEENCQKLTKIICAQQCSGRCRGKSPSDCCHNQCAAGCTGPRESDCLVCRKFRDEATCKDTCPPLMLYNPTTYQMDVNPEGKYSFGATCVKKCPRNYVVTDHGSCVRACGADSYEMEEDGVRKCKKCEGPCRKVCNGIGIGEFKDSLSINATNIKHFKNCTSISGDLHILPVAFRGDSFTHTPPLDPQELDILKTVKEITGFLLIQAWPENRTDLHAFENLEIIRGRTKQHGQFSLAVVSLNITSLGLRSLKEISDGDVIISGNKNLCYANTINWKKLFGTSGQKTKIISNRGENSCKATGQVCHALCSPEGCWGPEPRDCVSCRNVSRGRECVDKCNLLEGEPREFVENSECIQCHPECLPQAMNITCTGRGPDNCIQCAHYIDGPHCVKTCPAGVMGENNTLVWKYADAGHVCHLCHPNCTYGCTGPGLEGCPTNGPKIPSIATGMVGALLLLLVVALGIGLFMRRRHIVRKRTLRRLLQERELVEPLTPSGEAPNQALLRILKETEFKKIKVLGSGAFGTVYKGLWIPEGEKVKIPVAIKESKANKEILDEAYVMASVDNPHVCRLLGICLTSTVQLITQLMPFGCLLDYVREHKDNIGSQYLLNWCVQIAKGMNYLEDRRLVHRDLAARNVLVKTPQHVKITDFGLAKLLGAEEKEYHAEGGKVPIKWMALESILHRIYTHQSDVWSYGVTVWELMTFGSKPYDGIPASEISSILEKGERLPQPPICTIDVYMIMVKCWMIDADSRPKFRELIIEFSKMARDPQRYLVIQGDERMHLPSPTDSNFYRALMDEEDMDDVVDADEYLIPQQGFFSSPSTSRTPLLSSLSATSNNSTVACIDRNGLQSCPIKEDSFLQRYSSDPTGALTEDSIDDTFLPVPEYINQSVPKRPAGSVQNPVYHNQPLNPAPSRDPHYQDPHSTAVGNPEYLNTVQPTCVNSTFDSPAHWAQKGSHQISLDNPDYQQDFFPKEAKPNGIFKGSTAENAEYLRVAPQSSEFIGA
Chain of MEK2 (P36507 whole entry): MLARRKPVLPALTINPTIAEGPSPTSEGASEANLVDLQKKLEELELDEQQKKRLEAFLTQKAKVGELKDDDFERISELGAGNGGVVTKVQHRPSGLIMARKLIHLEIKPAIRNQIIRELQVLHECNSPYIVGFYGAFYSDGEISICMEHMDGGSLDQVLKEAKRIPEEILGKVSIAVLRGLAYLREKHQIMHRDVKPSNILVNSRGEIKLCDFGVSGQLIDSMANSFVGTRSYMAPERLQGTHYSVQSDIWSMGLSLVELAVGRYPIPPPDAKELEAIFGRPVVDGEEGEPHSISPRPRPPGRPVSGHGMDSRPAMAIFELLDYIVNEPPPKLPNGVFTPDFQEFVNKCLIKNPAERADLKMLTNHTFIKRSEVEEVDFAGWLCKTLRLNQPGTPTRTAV
Chain of NIK (Q99558 whole entry): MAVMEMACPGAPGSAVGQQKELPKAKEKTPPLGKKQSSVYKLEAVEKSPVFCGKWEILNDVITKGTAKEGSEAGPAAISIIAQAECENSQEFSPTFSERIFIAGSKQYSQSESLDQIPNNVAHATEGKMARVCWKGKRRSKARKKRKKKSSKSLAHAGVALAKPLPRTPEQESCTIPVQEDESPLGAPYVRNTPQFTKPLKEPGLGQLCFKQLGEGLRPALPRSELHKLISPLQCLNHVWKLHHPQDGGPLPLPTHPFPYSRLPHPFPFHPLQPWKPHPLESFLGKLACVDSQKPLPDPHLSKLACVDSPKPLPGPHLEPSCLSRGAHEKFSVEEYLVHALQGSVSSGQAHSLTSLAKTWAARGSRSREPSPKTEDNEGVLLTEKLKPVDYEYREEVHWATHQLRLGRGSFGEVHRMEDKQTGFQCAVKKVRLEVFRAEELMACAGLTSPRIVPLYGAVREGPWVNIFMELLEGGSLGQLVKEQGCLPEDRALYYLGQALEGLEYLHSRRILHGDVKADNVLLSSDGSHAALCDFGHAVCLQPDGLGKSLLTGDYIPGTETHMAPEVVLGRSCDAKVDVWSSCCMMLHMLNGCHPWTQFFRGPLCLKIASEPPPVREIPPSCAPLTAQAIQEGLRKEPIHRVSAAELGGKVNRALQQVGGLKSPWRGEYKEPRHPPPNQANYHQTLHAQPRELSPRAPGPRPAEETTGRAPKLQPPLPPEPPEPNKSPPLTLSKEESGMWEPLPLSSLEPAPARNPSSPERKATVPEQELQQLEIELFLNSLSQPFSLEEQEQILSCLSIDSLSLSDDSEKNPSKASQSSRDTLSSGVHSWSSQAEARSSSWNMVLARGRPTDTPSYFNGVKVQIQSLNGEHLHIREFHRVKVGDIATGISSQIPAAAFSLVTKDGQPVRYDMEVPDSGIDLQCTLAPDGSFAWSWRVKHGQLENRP

Regarding `CNc1c(-c2ccc(C(=O)N3CCC(N4CCOCC4)CC3)cc2)cnc2[nH]cc(Cl)c12` [Compound 96, (4-(3-chloro-4-(methylamino)-1H-pyrrolo[2,3-b]pyridin-5-yl)phenyl)(4-morpholinopiperidin-1-yl)methanone], the remaining binding at 1 µM at CAMK1D amounted to 69%; at CSF1R, 73%; on DAPK2, 82%; in test [1], 77%; at FGR, 95%; at GSK3A, 65%. The remaining binding at 1 µM on MEK2 was found to be 19%; on MET, 84%; at MYLK4, 100%; on NIK, 13%; at PIK3C2B, 96%; on PIK3CA, 100%. The remaining binding at 1 µM on RIPK5 is 8.6%; on STK16, 2%.

On to `O=C(c1ccc(-c2cnc3[nH]cc(Cl)c3c2NC2CCCC2)cc1)N1CCC(N2CCOCC2)CC1` [Compound 101, (4-(3-chloro-4-(cyclopentylamino)-1H-pyrrolo[2,3-b]pyridin-5-yl)phenyl)(4-morpholinopiperidin-1-yl)methanone], for which the remaining binding at 1 µM turned out to be 100% on CAMK1D; 28% on CSF1R; 100% on DAPK2; 100% in test [1]; 94% at FGR; 42% at GSK3A. Moreover, the remaining binding at 1 µM on MEK2 was 87%; on MET, 16%; on MYLK4, 95%; on NIK, 88%; at PIK3C2B, 96%; on PIK3CA it was 99%. For the same compound, the remaining binding at 1 µM came to 50% on RIPK5 and 13% on STK16.

Consider `CNc1c(-c2cnn([C@H]3CCN(C(C)=O)C[C@@H]3F)c2)cnc2[nH]cc(Cl)c12` [Compound 77, 1-((3S,4S)-4-(4-(3-chloro-4-(methylamino)-1H-pyrrolo[2,3-b]pyridin-5-yl)-1H-pyrazol-1-yl)-3-fluoropiperidin-1-yl)ethan-1-one], for which the remaining binding at 1 µM on CAMK1D stood at 85%; on CSF1R it was 74%; at DAPK2, 72%; in test [1], 92%; at FGR, 80%; at GSK3A it was 98%. In addition, the remaining binding at 1 µM was found to be 31% at MEK2; 63% on MET; 90% at MYLK4; 55% at NIK; 100% on PIK3C2B; 100% at PIK3CA. In addition, the remaining binding at 1 µM at RIPK5 is 31%; on STK16 it was 2.9%.
